Laboratory results as given in the SangsterLogP compilation.

Assay: method code SF, from DOI: 10.1021/jf00073a025

Row | Structure (SMILES) | logP
1 | CNC(=O)O/N=C1\SCSC1C (centres undefined) | 0.91
2 | CNC(=O)O/N=C1\SCOC1CCOC (centres undefined) | 0.51
3 | CNC(=O)O/N=C1/SCOC1(C)C | 0.82
4 | CNC(=O)O/N=C1/SC(C)OC1C (centres undefined) | 0.96
5 | CNC(=O)ON=C1COCCS1 (stereo in doubt) | -0
6 | CCCC1OCS/C1=N\OC(=O)NC (centres undefined) | 1.52
7 | CNC(=O)ON=C1SCOC1C (stereo in doubt) | 0.46
8 | CNC(=O)ON=C1CSCCS1 | 0.49
9 | CNC(=O)O/N=C1/CSCS1 | 0.51
10 | CNC(=O)O/N=C1/COCS1 | 0.06
11 | CNC(=O)ON=C1SCSC1(C)C | 1.31
12 | CNC(=O)ON=C1CSC(C)(C)S1 | 1.33
13 | CNC(=O)O/N=C1\SCOC1C(C)C (centres undefined) | 1.48
14 | CNC(=O)O/N=C1\SCCSC1(C)C | 1.51
